The values that follow come from PMC6033295, “The Effects of the Honey-Roasting Process on the Pharmacokinetics of the Six Active Compounds of Licorice” (Evidence-based Complementary and Alternative Medicine : eCAM, 2018).

Data set [1] in a line: Pharmacokinetic study in rats after oral administration of raw/honey-roasting licorice water decoction (UPLC-MS/MS of plasma). The note with it: for AUC(0-t) / Cmax / Tmax / AUC0-24h: 2.7 g (crude drug)/kg, rat plasma, n = 5; for AUC(0-t): read-out: AUC0-24h. In kind it is in vivo, Wistar rats. How it is done:
Healthy male Wistar rats (weighing 200 ± 20 g) were obtained from the Laboratory Animal Centre of Shanghai Jiao Tong University (Shanghai, China). […] All protocols and procedures were approved by the Shanghai Jiao Tong University Animal Care and Use Committee.
Chromatographic separation was performed on a ZORBAX Eclipse Plus C18 column (50 mm × 2.1 mm, 1.8 µm). […] The flow rate was set at 0.4 mL/min. The column temperature and injection volume were set at 40°C and 2.0 µL, respectively. An MS system operating in negative electrospray ionization mode was employed in this study. […] The DP for each compound and IS were -120, -100, -100, -100, -100, -80, and -100 V, respectively. The collision energy for each compound and IS were -58, -32, -42, -32, -32, -65, and -20 V, respectively. The ion spray needle voltage was set at -4500 V, and the source temperature was 500°C. Following optimization of the setting parameters, the ESI source was operated with the GS1, GS2, and CUR (Nitrogen) set at 35, 35, and 40 psi, respectively.
Fifty microliters of the plasma samples (or standard plasma samples and QC samples) were spiked with 5 µL of IS solution (10.00 µg/mL) and 200 µL of acetonitrile. The mixture was vortexed for 30 s and centrifuged at 14,000 rpm for 15 min at 4°C. The supernatant was collected and evaporated in a 37°C water bath under a nitrogen stream. The residue was redissolved with 500 µL of 70% acetonitrile.
After being housed in a controlled environment for a week, rats were randomly divided into three groups (n = 5 for each group) and were then orally administered a raw, 25% honey-roasting, or 50% honey-roasting licorice water decoction at a dosage of 2.7 g (crude drug)/kg. Blood samples of 0.15 mL were taken from the suborbital vein into heparinized tubes at 0.17, 0.5, 1, 1.5, 2, 2.5, 3, 4, 6, 8, 12, and 24 h after oral administration of the licorice water decoction. The blood samples were immediately centrifuged at 10,000 rpm for 15 min. The separated plasma samples were frozen at -80°C before analysis.
The pharmacokinetic parameters of the six compounds were calculated by […] 4.4.1 (Thermo Electron Corporation, Philadelphia, PA, USA) software. […] Data were presented as the mean ± SD. Statistical analyses of all the data obtained were evaluated using one-way ANOVA (SPSS 17.0).

Data set [2] can be described thus: Stability of six compounds in rat plasma (QC samples). Format: in vitro ADME. The settings on record: n = 6. How it is done: The stabilities of the six compounds in rat plasma were evaluated by analyzing QC samples under different conditions. […] Long-term stability was tested by storing QC samples at -80°C for one month. RSD was evaluated by analyzing six replicate samples. The stability of the six compounds was evaluated under various conditions.

On the set-up of data set [3]: method as in PMID 8197226, PMID 1432618. The settings on record: cited from earlier work.
[4] abbreviates: male, Wistar, rat, plasma, po, oral 25% honey-roasting licorice water decoction.
Where [5] appears, read: male, Wistar, rat, plasma, po, oral 25% honey-roasting licorice water decoction, read-out: Cmax.
The mark [6] stands for this setting: male, Wistar, rat, plasma, po, oral 25% honey-roasting licorice water decoction, read-out: Tmax.
The mark [7] stands for this setting: male, Wistar, rat, plasma, po, oral 50% honey-roasting licorice water decoction.
Setting [8] is: male, Wistar, rat, plasma, po, oral 50% honey-roasting licorice water decoction, read-out: Cmax.
Where [9] appears, read: male, Wistar, rat, plasma, po, oral 50% honey-roasting licorice water decoction, read-out: Tmax.
The mark [10] stands for this setting: male, Wistar, rat, plasma, po, oral raw licorice water decoction.
Setting [11] is: male, Wistar, rat, plasma, po, oral raw licorice water decoction, read-out: Cmax.
The mark [12] stands for this setting: oral raw licorice water decoction.
Where [13] appears, read: At 4°C for 24 h, postpreparative QC sample in autosampler, high concentration level.
Setting [14] is: At 4°C for 24 h, postpreparative QC sample in autosampler, low concentration level.
[15] abbreviates: At 4°C for 24 h, postpreparative QC sample in autosampler, medium concentration level.
Where [16] appears, read: At -80°C for 1 month, rat plasma QC sample, low concentration level.
Setting [17] is: At -80°C for 1 month, rat plasma QC sample, medium concentration level.
Where [18] appears, read: 25% honey-roasting group vs raw group, rat, oral.
[19] abbreviates: At -80°C for 1 month, rat plasma QC sample, high concentration level.
[20] abbreviates: male, Wistar, rat, in vivo, po, oral 50% honey-roasting licorice water decoction.
Where [21] appears, read: oral 25% honey-roasting licorice water decoction.
[22] abbreviates: oral 50% honey-roasting licorice water decoction.

Where two headings read alike, the source gives them in different places.

In general, Cmax refers to the maximum level reached in the sampled fluid or tissue. As usually defined, the Tmax is the time from dosing to the highest level. For the compound `CC1(C)[C@@H](O)CC[C@]2(C)[C@H]3C(=O)C=C4[C@@H]5C[C@@](C)(C(=O)O)CC[C@]5(C)CC[C@@]4(C)[C@]3(C)CC[C@@H]12` [GA, glycyrrhetinic acid], the AUC(0-t) in data set [1] (setting [4]) amounted to 7000 ± 1290 ng·h/mL; in data set [1] (setting [7]), 5180 ± 2540 ng·h/mL; in data set [1] (setting [10]), 6980 ± 4800 ng·h/mL. For the same compound, the results for the Cmax in data set [1] (setting [5]), in data set [1] (setting [8]) and in data set [1] (setting [11]) were 651 ± 200 ng/mL, 608 ± 278 ng/mL and 572 ± 311 ng/mL, respectively. The Tmax in data set [1] (setting [6]) was determined as 6.8 h; in data set [1] (setting [9]) it was 6.8 h; in data set [1] (setting [12]), 8.0 h. The “Stability, Average” value in data set [2] (setting [13]) turned out to be 100.9%; in data set [2] (setting [14]), 96.4%; in data set [2] (setting [15]), 96.2%; in data set [2] (setting [16]), 96.2%; in data set [2] (setting [17]), 102.1%.

As to `CC1(C)[C@@H](O[C@H]2O[C@H](C(=O)O)[C@@H](O)[C@H](O)[C@H]2O[C@@H]2O[C@H](C(=O)O)[C@@H](O)[C@H](O)[C@H]2O)CC[C@]2(C)[C@H]3C(=O)C=C4[C@@H]5C[C@@](C)(C(=O)O)CC[C@]5(C)CC[C@@]4(C)[C@]3(C)CC[C@@H]12` [Glycyrrhizin, glycyrrhizin], the oral bioavailability result in data set [3] is “extremely low”.

As for `O=C(/C=C/c1ccc(O)cc1)c1ccc(O)cc1O` [ILG, isoliquiritigenin], the “Cmax higher than in the raw group” value in data set [1] (setting [18]) stood at 49.3%. Moreover, in data set [1] (honey-roasting licorice vs raw licorice group, rat, oral), the “AUC0-24h increased over the raw licorice group” value is on record as 42.7%. Further, the AUC(0-t) in data set [1] (setting [4]) stood at 9.32 ± 0.68 ng·h/mL; in data set [1] (setting [7]), 6.13 ± 0.8 ng·h/mL; in data set [1] (setting [10]), 6.53 ± 2.34 ng·h/mL. For the same compound, the values for the Cmax in data set [1] (setting [5]), in data set [1] (setting [8]) and in data set [1] (setting [11]) were 1.12 ± 0.25 ng/mL, 0.56 ± 0.12 ng/mL and 0.75 ± 0.28 ng/mL, respectively. For the same compound, the Tmax in data set [1] (setting [6]) was determined as 1.5 h; in data set [1] (setting [9]), 1.8 h; in data set [1] (male, Wistar, rat, plasma, po, oral raw licorice water decoction, read-out: Tmax), 1.5 h. Further, the “Stability, Average” value in data set [2] (setting [13]) is given as 93.1%; in data set [2] (setting [14]) it was 95.7%; in data set [2] (setting [15]), 96.4%; in data set [2] (setting [19]), 87.6%; in data set [2] (setting [16]), 94.7%; in data set [2] (setting [17]) it was 85.3%.

Consider `O=C(/C=C/c1ccc(O[C@@H]2O[C@H](CO)[C@@H](O)[C@H](O)[C@H]2O)cc1)c1ccc(O)cc1O` [ILQ, isoliquiritin], for which the “Cmax lower than in the raw group” value in data set [1] (setting [18]) was 48.07%. The “Tmax longer than in the raw group” value in data set [1] (setting [18]) came to 1.75 times. Moreover, the Tmax in data set [1] (male, Wistar, in vivo, oral 25% honey-roasting licorice water decoction, read-out: Tmax) stood at 0.7 h. Also, the AUC(0-t) worked out at 260 ± 8.53 ng·h/mL in data set [1] (male, Wistar, rat, in vivo, po, oral 25% honey-roasting licorice water decoction); 246 ± 7.67 ng·h/mL in data set [1] (setting [20]); 257 ± 19.3 ng·h/mL in data set [1] (male, Wistar, rat, in vivo, po, oral raw licorice water decoction). Moreover, the Cmax amounted to 24.8 ± 3.63 ng/mL in data set [1] (male, Wistar, rat, in vivo, po, oral 25% honey-roasting licorice water decoction, read-out: Cmax); 20.6 ± 5.82 ng/mL in data set [1] (male, Wistar, rat, in vivo, po, oral 50% honey-roasting licorice water decoction, read-out: Cmax); 47.8 ± 2.62 ng/mL in data set [1] (male, Wistar, rat, in vivo, po, oral raw licorice water decoction, read-out: Cmax). In addition, the “Stability, Average” value in data set [2] (setting [13]) was 95.7%; in data set [2] (setting [14]) it was 90.2%; in data set [2] (setting [15]), 89.3%; in data set [2] (setting [19]), 100.1%; in data set [2] (setting [16]), 89.4%; in data set [2] (setting [17]), 94.2%.

On to `O=C1C[C@@H](c2ccc(O)cc2)Oc2cc(O)ccc21` [LG, liquiritigenin], for which the AUC0-24h in data set [1] (setting [21]) is 85.36 ± 14.70 ng·h/mL; in data set [1] (setting [22]) it was 47.74 ± 8.03^∗Δ h·ng /mL; in data set [1] (setting [12]), 84.29 ± 33.71 ng·h/mL. The Tmax in data set [1] (setting [21]) was 2.3 h; in data set [1] (setting [22]) it was 2.5 h; in data set [1] (setting [12]), 2.4 h. Besides, the “Stability, Average” value in data set [2] (setting [13]) is 93.9%; in data set [2] (setting [14]), 90.8%; in data set [2] (setting [15]), 87.7%; in data set [2] (setting [19]), 96.5%; in data set [2] (setting [16]), 92.8%.

For the compound `O=C1C[C@@H](c2ccc(O[C@@H]3O[C@H](CO)[C@@H](O)[C@H](O)[C@H]3O)cc2)Oc2cc(O)ccc21` [LQ, liquiritin], in data set [1] (50% honey-roasting group vs raw licorice group, rat, oral), the “Cmax lower than in the raw licorice group” value was determined as 53.96%. Also, the values for the AUC(0-t) in data set [1] (setting [20]), in data set [1] (setting [4]) and in data set [1] (setting [10]) were 319 ± 50 ng·h/mL, 479 ± 65.2 ng·h/mL and 520 ± 94.5 ng·h/mL, respectively. Besides, the values for the Cmax in data set [1] (setting [5]), in data set [1] (setting [8]) and in data set [1] (setting [12]) were 203 ± 54.1 ng/mL, 87.9 ± 8.08 ng/mL and 191.00 ± 80.23 ng/mL, respectively. In addition, the “Stability, Average” value in data set [2] (setting [13]) stood at 99.5%; in data set [2] (setting [14]) it was 90.9%; in data set [2] (setting [15]), 88.3%; in data set [2] (setting [19]) it was 89.5%; in data set [2] (setting [16]), 96.4%; in data set [2] (setting [17]), 95.6%.
